The text below walks through data of patent US8518958B2, “Pyrido [2,3-D] pyrimidines and their use as kinase inhibitors” (Forma Therapeutics, Inc., priority 2006, dated 2013).

For one assay, the target named is B-Raf delta1-415 (Homo sapiens, UniProt P15056). The experiment in a line: B-Raf kinase inhibition (MAPH filter plate, 33P-ATP, MEK1 substrate). The following applies: read-out: Biochemical IC50 B-Raf. In short, it runs like this:
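Radiometric filter-binding assay with B-Raf delta1-415 at a level giving 50% turnover, MEK1 substrate and 33P-ATP (12.5 μCi/ml) in 20 mM Mops pH 7.0 with Mg/Mn, 1 h at room temperature. Inhibitor dilution series from 10 μM; EDTA-stopped reactions captured on phosphocellulose filters, counted by scintillation for IC50.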

A further assay concerns HT-29 tumor cells. The experiment in a line: Anti-proliferative activity, SRB assay. Type of assay: cell-based, human. The following applies: Homo sapiens, HT-29, 72 h, 72 hours exposure, read-out: CELLULAR IC50 HT-29. In short, it runs like this:
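Cells at 3,000-15,000/well, plated 24 h before compound, exposed to a concentration range for 72 hours. Proliferation measured by SRB staining after cold TCA fixation, absorbance at OD570; IC50 estimated from % inhibition versus DMSO-treated cells.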
A general note: Sulforhodamine B stains cellular protein and so reports cell mass.

Chain of B-Raf delta1-415 (P15056 416-766): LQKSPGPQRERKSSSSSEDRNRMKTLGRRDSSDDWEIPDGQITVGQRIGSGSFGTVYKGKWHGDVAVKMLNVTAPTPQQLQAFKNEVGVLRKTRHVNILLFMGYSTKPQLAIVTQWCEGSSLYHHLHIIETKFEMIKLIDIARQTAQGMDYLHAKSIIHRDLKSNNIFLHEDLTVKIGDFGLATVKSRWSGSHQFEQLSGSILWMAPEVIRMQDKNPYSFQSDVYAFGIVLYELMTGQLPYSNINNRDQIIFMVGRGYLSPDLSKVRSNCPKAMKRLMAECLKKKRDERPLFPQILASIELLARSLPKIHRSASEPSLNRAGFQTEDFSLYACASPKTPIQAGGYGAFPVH

One may read the IC50 as the point on the concentration scale where inhibition reaches its midpoint. With `COn1c(=O)c(-c2c(F)cccc2Cl)cc2cnc(Nc3ccc(N4CCNCC4)c(F)c3)nc21` [Compound 211, 6-(2-Chloro-6-fluorophenyl)-2-(3-fluoro-4-piperazinophenyl)-amino-8-methoxy-pyrido[2,3-d]pyrimidin-7-one], the values for the IC50 at B-Raf delta1-415 and with HT-29 tumor cells were less than 100 nM and less than 1000 nM, respectively.

Regarding `O=c1c(-c2c(F)cccc2Cl)cc2cnc(Nc3ccc(N4CCOCC4)cc3)nc2n1OC[C@H](O)CO` [Compound 152], the IC50 is less than 100 nM at B-Raf delta1-415 and less than 1000 nM with HT-29 tumor cells.

Take `COCCOn1c(=O)c(-c2c(Cl)cccc2Cl)cc2cnc(Nc3cc(C(=O)NCCN4CCCC4)n(C)c3)nc21` [Compound 99, 6-(2,6-Dichlorophenyl)-8-(2-methoxyethyl)oxy-2-(5-(2-pyrrolidinoethyl)aminocarbonyl-1-methyl-pyrrol-3-yl)-amino-pyrido[2,3-d]pyrimidin-7-one]: the concentration for half-maximal inhibition (IC50) was less than 500 nM on B-Raf delta1-415 and less than 1000 nM in the assay on HT-29 tumor cells.

Regarding `COn1c(=O)c(-c2c(F)cccc2Cl)cc2cnc(Nc3ccc(N4CCNCC4)c(CO)c3)nc21` [Compound 218, 6-(2-Chloro-6-fluorophenyl)-8-methoxy-2-(3-hydroxymethyl-4-piperazinophenyl)-amino-pyrido[2,3-d]pyrimidin-7-one], the figures for the concentration for half-maximal inhibition (IC50) on B-Raf delta1-415 and in the assay on HT-29 tumor cells were less than 100 nM and less than 1000 nM, respectively.

Consider `COn1c(=O)c(-c2c(Cl)cccc2Cl)cc2cnc(Nc3cccc(S(C)(=O)=O)c3)nc21` [Compound 157, 6-(2,6-Dichlorophenyl)-8-methoxy-2-(3-methylsulfonylphenyl)-amino-pyrido[2,3-d]pyrimidin-7-one], for which the figures for the half-maximal inhibitory concentration (IC50) on B-Raf delta1-415 and with HT-29 tumor cells were less than 100 nM and less than 1000 nM, respectively.

`COn1c(=O)c(-c2c(Cl)cccc2Cl)cc2cnc(Nc3ccc(Cc4n[nH]c(C)n4)cc3)nc21` [Compound 151, 6-(2,6-Dichlorophenyl)-8-methoxy-2-(4-(5-methyl-1,2,4-triazol-3-yl)methylphenyl)-amino-pyrido[2,3-d]pyrimidin-7-one]: the IC50 at B-Raf delta1-415 is less than 500 nM; with HT-29 tumor cells it was less than 1000 nM.

Regarding `COn1c(=O)c(-c2c(Cl)cccc2Cl)cc2cnc(Nc3ccc(S(=O)(=O)CCCO)cc3)nc21` [Compound 160, 6-(2,6-Dichlorophenyl)-2-(4-(3-hydroxypropyl)sulfonylphenyl)-amino-8-methoxy-pyrido[2,3-d]pyrimidin-7-one], the IC50 at B-Raf delta1-415 was less than 100 nM; with HT-29 tumor cells, less than 1000 nM.

Regarding `COn1c(=O)c(-c2c(Cl)cccc2Cl)cc2cnc(Nc3ccc(SCCCO)cc3)nc21` [Compound 158, 6-(2,6-Dichlorophenyl)-2-(4-(3-hydroxypropyl)thiophenyl)-amino-8-methoxy-pyrido[2,3-d]pyrimidin-7-one], the half-maximal inhibitory concentration (IC50) at B-Raf delta1-415 was less than 500 nM; in the assay on HT-29 tumor cells it was less than 1000 nM.

For `COn1c(=O)c(-c2c(F)cccc2Cl)cc2cnc(Nc3cc(C(=O)N(C)CCOC(=O)c4cccnc4)n(C)c3)nc21` [Compound 220], the results for the concentration for half-maximal inhibition (IC50) at B-Raf delta1-415 and with HT-29 tumor cells were less than 500 nM and less than 1000 nM, respectively.

Consider `CCN(CC)Cc1ccc(Nc2ncc3cc(-c4c(Cl)cccc4Cl)c(=O)n(OC)c3n2)cc1` [Compound 167, 6-(2,6-Dichlorophenyl)-2-(4-diethylaminomethylphenyl)-amino-8-methoxy-pyrido[2,3-d]pyrimidin-7-one], for which the concentration for half-maximal inhibition (IC50) is less than 500 nM at B-Raf delta1-415 and less than 1000 nM in the assay with HT-29 tumor cells.

For the compound `COn1c(=O)c(-c2c(Cl)cccc2Cl)cc2cnc(Nc3ccc(N4CCN(S(C)(=O)=O)CC4)cc3)nc21` [Compound 200, 6-(2,6-Dichlorophenyl)-8-methoxy-2-(4-(4-methylsulfonyl)piperazino-phenyl)-amino-pyrido[2,3-d]pyrimidin-7-one], the IC50 on B-Raf delta1-415 is less than 500 nM; with HT-29 tumor cells, less than 1000 nM.

For `COn1c(=O)c(-c2c(Cl)cccc2Cl)cc2cnc(Nc3ccc(CN4CCC(F)(F)C4)cc3)nc21` [Compound 196, 6-(2,6-Dichlorophenyl)-2-(4-(3,3-difluoropyrrolidinomethyl)phenyl)-amino-8-methoxy-pyrido[2,3.-d]pyrimidin-7-one], the IC50 is less than 500 nM on B-Raf delta1-415 and less than 1000 nM in the assay with HT-29 tumor cells.

As for `COn1c(=O)c(-c2c(Cl)cccc2Cl)cc2cnc(Nc3nncs3)nc21` [Compound 90, 6-(2,6-Dichlorophenyl)-8-methoxy-2-(1-thia-3,4-diazol-2-yl)-amino-pyrido[2,3-d]pyrimidin-7-one], the IC50 at B-Raf delta1-415 is less than 500 nM; with HT-29 tumor cells, less than 10000 nM.

Turning to `CCN(CC)CCNC(=O)c1cc(Nc2ncc3cc(-c4c(Cl)cccc4Cl)c(=O)n(OC)c3n2)cn1C` [Compound 81, 6-(2,6-Dichlorophenyl)-2-(5-(2-diethylaminoethyl)aminocarbonyl-1-methyl-pyrrol-3-yl)-amino-8-methoxy-pyrido[2,3-d]pyrimidin-7-one], the half-inhibitory concentration (IC50) at B-Raf delta1-415 is less than 500 nM; with HT-29 tumor cells, less than 1000 nM.

Regarding `COn1c(=O)c(-c2c(F)cccc2Cl)cc2cnc(Nc3cc(C(=O)N(C)CCO)n(C)c3)nc21` [Compound 193, 6-(2-Chloro-6-fluorophenyl)-2-(5-N-(2-hydroxyethyl)-N-methyl-aminocarbonyl-1-methyl-pyrrol-3-yl)-amino-8-methoxy-pyrido[2,3-d]pyrimidin-7-one], the 50% inhibitory concentration (IC50) at B-Raf delta1-415 is less than 100 nM; in the assay with HT-29 tumor cells it was less than 1000 nM.

Turning to `COn1c(=O)c(-c2c(F)cccc2Cl)cc2cnc(Nc3ccc(N4CCN(C(C)C)CC4)cc3)nc21` [Compound 203, 6-(2-Chloro-6-fluorophenyl)-8-methoxy-2-(4-(4-(1-methylethyl)piperazino)phenyl)-amino-pyrido[2,3-d]pyrimidin-7-one], the half-maximal inhibitory concentration (IC50) on B-Raf delta1-415 is less than 100 nM; in the assay with HT-29 tumor cells, less than 1000 nM.

As to `COn1c(=O)c(-c2c(Cl)cccc2Cl)cc2cnc(Nc3ccc(N4CCOCC4)cc3)nc21` [Compound 98, 6-(2,6-Dichlorophenyl)-8-methoxy-2-(4-morpholinophenyl)-amino-pyrido[2,3-d]pyrimidin-7-one], the results for the half-inhibitory concentration (IC50) at B-Raf delta1-415 and in the assay on HT-29 tumor cells were less than 100 nM and less than 1000 nM, respectively.

For `COn1c(=O)c(-c2c(Cl)cccc2Cl)cc2cnc(Nc3ccc(CO)cc3)nc21` [Compound 144, 6-(2,6-Dichlorophenyl)-2-(4-hydroxymethylphenyl)-amino-8-methoxy-pyrido[2,3-d]pyrimidin-7-one], the IC50 on B-Raf delta1-415 was less than 100 nM; with HT-29 tumor cells, less than 10000 nM.

On to `COn1c(=O)c(-c2c(Cl)cccc2Cl)cc2cnc(NCCO)nc21` [Compound 102, 6-(2,6-Dichlorophenyl)-2-hydroxyethylamino-8-methoxy-pyrido[2,3-d]pyrimidin-7-one], for which the half-inhibitory concentration (IC50) was less than 500 nM on B-Raf delta1-415 and less than 10000 nM in the assay on HT-29 tumor cells.

As to `O=c1c(-c2c(F)cccc2Cl)cc2cnc(Nc3ccc(N4CCOCC4)cc3)nc2n1OC[C@@H](O)CO` [Compound 148], the IC50 was less than 100 nM at B-Raf delta1-415 and less than 1000 nM with HT-29 tumor cells.

As for `COn1c(=O)c(-c2c(Cl)cccc2Cl)cc2cnc(Nc3ccc(N4CCNCC4)cc3)nc21` [Compound 184, 6-(2,6-Dichlorophenyl)-8-methoxy-2-(4-piperazinophenyl)-amino-pyrido[2,3-d]pyrimidin-7-one], the figures for the IC50 on B-Raf delta1-415 and in the assay with HT-29 tumor cells were less than 100 nM and less than 1000 nM, respectively.

In the case of `COn1c(=O)c(-c2c(Cl)cccc2Cl)cc2cnc(Nc3cc(C(=O)NCCOC(=O)[C@@H](N)C(C)C)n(C)c3)nc21` [Compound 112, 2-(5-(2-(2-(S)-2-Amino-3-methylbutanoyloxy)ethyl)aminocarbonyl-1-methyl-pyrrol-3-yl)-amino-6-(2,6-dichlorophenyl)-8-methoxy-pyrido[2,3-d]pyrimidin-7-one], the figures for the IC50 at B-Raf delta1-415 and with HT-29 tumor cells were less than 500 nM and less than 1000 nM, respectively.
